Laboratory results taken from patent EP0049683A2, “Imidazo-rifamycines, process for their preparation, pharmaceutical preparations containing them and their use” (CIBA-GEIGY AG, priority 1980, dated 1982).
Values after ≈ are worked out from the molar mass of the structure shown.

What was measured:
[1] = type: physicochemical
Experimental: Eine Lösung von 0,5 g 3-Dimethylaminomethylenamino-Rifamycin S in 5 ml Methanol wird mit 2 ml einer 10 % (G/V) wässerigen Natriumbicarbonatlösung und 5 ml einer 10 % (G/V) Lösung von K4[Fe(CN)6] Kaliumferrocyanid) in Wasser versetzt, die Lösung 3 Minuten intensiv gerührt und mit je 20 ml Wasser und Chloroform verdünnt. Die Chloroformphase wird abgetrennt und die wässerige Phase noch zweimal mit Chloroform extrahiert. Die vereinigten Chloroformextrakte werden getrocknet und eingedampft, wodurch 3-Dimethylaminomethylenamino-Rifamycin SV als gelbes Pulver resultiert.

[2] = type: physicochemical; remark: listed apart in the source
Experimental: Eine unter Stickstoff gerührte Suspension von 15,50 g 4-Dimethylamino-imidazolo[4,5-c]rifamycin SV (1) in 150 ml Wasser wird tropfenweise mit 20,0 ml einer 1-N-wässrigen Natriumhydroxid-Lösung (0,987 Aequivalent) versetzt. Die resultierende gelbgefärbte Lösung wird filtriert und das Filtrat der Gefriertrocknung unterworfen. […] Für C40H51N4O11Na (MG 786,85) berechnet 2,92% Na; gefunden 2,87% Na.
Eine gerührte Suspension von 8,75 g 4-(4-Isobutylpiperazinyl)-imidazolo[4,5-c]rifamycin SV (4) in 165 ml Wasser wird mit 10,0 ml 1-normaler wässriger Salzsäure (0,985 Aequivalent) versetzt. Das Gemisch wird filtriert, und das Filtrat der Gefriertrocknung unterworfen. Das erhaltene 4-(4-Isobutylpiperazinyl)-imidazolo[4,5-c]rifamycin SV-Hydrochlorid bildet ein wasserlösliches, gelbes amorphes Pulver. Für C46H63N5O11 · HC1 (898,49) berechnet: 3,95% Cl, gefunden: 4,08% Cl.

[3] = system: Mycobacterium tuberculosis; test: Agar dilution MIC in DST agar (Ericsson and Sherris); type: cell-based; conditions: Mycobacterium tuberculosis, in vitro, read-out: MIC Myc. tub.
[4] = system: Enterobacteriaceae, z.B. Escherichia coli, Pseudomonas aeruginosa und Proteus morganii; test: In vitro antibacterial activity against gram-negative rods; type: cell-based; conditions: within the stated concentration range, 1 bis 64 y/ml
Text: (§1) Die neuen erfindungsgemässen Verbindungen der Formel I zeichnen sich vor allem durch ihre wertvollen pharmakologischen Eigenschaften aus: so besitzen sie gemäss den Resultaten in vitro antibiotische, insbesondere antibakterielle Eigenschaften, wie z.B. einerseits gegen grammpositive Kokken, wie Staphylococcus aureus, (im getesteten Konzentrationsbereich 0,005 bis 128 y/ml),andererseits gegen grammnegative Stäbchenbakterien, wie Enterobacteriaceae, z.B. Escherichia coli, Pseudomonas aeruginosa und Proteus morganii (im getesteten Konzentrationsbereich von 1 bis 64 y/ml), sowie gegen Mycobacterium tuberculosis (im getesteten Konzentrationsbereich von 0,48 bis 1,9 y/ml). […] (Für die Testresultate siehe auch Tabelle -1.)
(§2) Auch die neuen erfindungsgemässen Verbindungen der Formeln V und VI zeichnen sich durch analoge wertvolle pharmakologische Eigenschaften aus, d.h. sie besitzen gemäss den Resultaten in vitro antibiotische, insbesondere antibakterielle Eigenschaften, die sich bezüglich des Anwendungsbereichs sowie der getesteten effektiven Konzentrationen den Verbindungen der Formel I praktisch gleichen. […] (Für die Testresultate siehe auch Tabelle 2.)

Staphylococcus aureus = test: In vitro antibacterial activity against gram-positive cocci; type: cell-based; conditions: at (at or below) the lowest limit of the tested concentration range, 0,005 y/ml
Text: as §1, §2

Proteus morganii 2359 = test: Agar dilution MIC in DST agar (Ericsson and Sherris); type: cell-based; conditions: Morganella morganii, 2359, in vitro, read-out: MIC Prot. 2359
How it was run: (§3)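 Agar-incorporation series, in vitro. MIC = lowest conc. still blocking organism growth; units µg/ml.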

Escherichia coli 2018 = test: as above; type: cell-based; conditions: Escherichia coli, 2018, in vitro, read-out: MIC Esch. 2018
How it was run: as §3

[5] = system: Salmonella Typhimurium 277; test: as above; type: cell-based; conditions: Salmonella enterica, TYPHIMURIUM, in vitro, read-out: MIC Salm. 277
How it was run: as §3

[6] = system: Pseudomonas aeruginosa K 799/61; test: as above; type: cell-based; conditions: Pseudomonas aeruginosa, K799/61, read-out: MIC Pseu. 799
How it was run: as §3

[7] = system: Staphylococcus aureus 10B; test: as above; type: cell-based; conditions: Staphylococcus aureus, 10B, in vitro, read-out: MIC Staph. 10B
How it was run: as §3

[8] = system: Staphylococcus aureus 2999; test: as above; type: cell-based; conditions: Staphylococcus aureus, 2999, in vitro, read-out: MIC Staph. 2999
How it was run: as §3

Escherichia coli 205 = test: as above; type: cell-based; conditions: Escherichia coli, 205, in vitro, read-out: MIC Esch. 205
How it was run: as §3

Proteus morganii 1518 = test: as above; type: cell-based; conditions: Morganella morganii, 1518, in vitro, read-out: MIC Prot. 1518
How it was run: as §3

Row | Compound | Stabilität beim Stehen in einer Lösung [1] | Löslichkeit in Wasser [2] | MIC [3] [µg/mL] | Hemmung der Enterobacterien [4] | Hemmwirkung auf Staphylococcus aureus (Staphylococcus aureus) | MIC (Proteus morganii 2359) [µg/mL] | MIC (Escherichia coli 2018) [µg/mL] | MIC [5] [µg/mL] | MIC [6] [µg/mL] | MIC [7] [µg/mL] | MIC [8] [µg/mL] | MIC (Escherichia coli 205) [µg/mL] | MIC (Proteus morganii 1518) [µg/mL]
1 | 3-Dimethylaminomethylenamino-Rifamycin SV [Beispiel 78A] | sehr schnell wieder zum Chinon durch Luftsauerstoffoxidation umgewandelt | – | – | – | – | – | – | – | – | – | – | – | –
2 | 4-Dimethylamino-imidazolo[4,5-c]rifamycin SV-Natriumsalz | – | in Wasser klar lösliches | – | – | – | – | – | – | – | – | – | – | –
3 | COC1C=COC2(C)Oc3c(C)c(O)c4c(O)c(c5[nH]c(N6CCN(CC(C)C)CC6)nc5c4c3C2=O)NC(=O)C(C)=CC=CC(C)C(O)C(C)C(O)C(C)C(OC(C)=O)C1C.Cl (stereo not drawn) [4-(4-Isobutylpiperazinyl)-imidazolo[4,5-c]rifamycin SV-Hydrochlorid] | – | wasserlösliches | – | – | – | – | – | – | – | – | – | – | –
4 | COC1C=COC2(C)Oc3c(C)c(O)c4c(O)c(c5nc(N6CCOCC6)[nH]c5c4c3C2=O)NC(=O)C(C)=CC=CC(C)C(O)C(C)C(O)C(C)C(OC(C)=O)C1C (stereo not drawn) [Verbindung 2, 4-Morpholino-imidazolo[4,5-c]rifamycin SV] | – | – | 1.9 (≈ 2.35 µM) | wirksam hemmen | deutliche Hemmwirkung | 4 (≈ 4.96 µM) | 16 (≈ 19.8 µM) | 32 (≈ 39.7 µM) | 8 (≈ 9.91 µM) | 0.01 (≈ 0.0124 µM) | 0.005 (≈ 0.0062 µM) | 16 (≈ 19.8 µM) | 4 (≈ 4.96 µM)
5 | COC1C=COC2(C)Oc3c(C)c(O)c4c(O)c(c5nc(N6CCN(C)CC6)[nH]c5c4c3C2=O)NC(=O)C(C)=CC=CC(C)C(O)C(C)C(O)C(C)C(OC(C)=O)C1C (stereo not drawn) [Verbindung 3, 4-(4-Methylpiperazinyl)-imidazolo[4,5-c]rifamycin SV] | – | – | 0.97 (≈ 1.18 µM) | wirksam hemmen | deutliche Hemmwirkung | 16 (≈ 19.5 µM) | 16 (≈ 19.5 µM) | 32 (≈ 39 µM) | 4 (≈ 4.88 µM) | 0.01 (≈ 0.0122 µM) | 0.01 (≈ 0.0122 µM) | 16 (≈ 19.5 µM) | 16 (≈ 19.5 µM)
6 | COC1C=COC2(C)Oc3c(C)c(O)c4c(O)c(c5nc(N6CCN(CC(C)C)CC6)[nH]c5c4c3C2=O)NC(=O)C(C)=CC=CC(C)C(O)C(C)C(O)C(C)C(OC(C)=O)C1C (stereo not drawn) [Verbindung 4, 4-(4-Isobutylpiperazinyl)-imidazolo[4,5-c]rifamycin SV] | – | – | 0.97 (≈ 1.13 µM) | wirksam hemmen | deutliche Hemmwirkung | 4 (≈ 4.64 µM) | 4 (≈ 4.64 µM) | 8 (≈ 9.28 µM) | 8 (≈ 9.28 µM) | 0.005 (≈ 0.0058 µM) | 0.005 (≈ 0.0058 µM) | 4 (≈ 4.64 µM) | 4 (≈ 4.64 µM)
